According to US11071731B2, “Allosteric modulators of the mu opioid receptor” (Chiromics, LLC, priority 2017, dated 2021):

Legend:
mu opioid receptor (MOR) [1] = molecular target: T1, mu opioid receptor (MOR) (Homo sapiens, UniProt P35372); experiment: Hit Hunter cAMP signaling assay (adenylyl cyclase inhibition), PAM mode with EC20 endomorphin-1; format: cell-based; conditions: for cAMP Max. Resp.: maximal response for adenylyl cyclase inhibition
mu opioid receptor (MOR) [2] = molecular target: T1, mu opioid receptor (MOR); experiment: PathHunter β-arrestin recruitment assay, PAM mode with EC20 endomorphin-1; format: cell-based; conditions: for β-arr Max. Resp.: maximal response for β-arrestin recruitment
How it was run: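 β-Arrestin recruitment to the receptor was tracked by chemiluminescent β-galactosidase activity from complementing fragments (ED on receptor, EA on β-arrestin). Per-compound outputs were EC50 and percent maximal response.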

[3] = adenylyl cyclase inhibition, read-out: cAMP EC50
[4] = β-arrestin recruitment, read-out: β-arr. EC50
[5] = cAMP EC50, adenylyl cyclase inhibition

T1 sequence (P35372 whole entry): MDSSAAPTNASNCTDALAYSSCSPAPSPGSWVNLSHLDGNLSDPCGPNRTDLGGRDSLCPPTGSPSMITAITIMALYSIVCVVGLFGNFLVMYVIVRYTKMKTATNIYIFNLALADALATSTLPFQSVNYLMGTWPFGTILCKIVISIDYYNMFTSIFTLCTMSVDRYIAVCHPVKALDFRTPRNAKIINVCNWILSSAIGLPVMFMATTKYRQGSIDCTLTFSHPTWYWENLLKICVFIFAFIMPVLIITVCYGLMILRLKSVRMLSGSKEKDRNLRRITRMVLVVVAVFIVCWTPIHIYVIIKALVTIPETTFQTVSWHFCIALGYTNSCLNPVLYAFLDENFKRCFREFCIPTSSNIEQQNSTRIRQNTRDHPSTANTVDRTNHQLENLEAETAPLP

Row | SMILES | cAMP Max Resp. (mu opioid receptor (MOR) [1]; adenylyl cyclase inhibition, activity switching by MOR PAMs) | EC50 (mu opioid receptor (MOR) [1]; adenylyl cyclase inhibition, activity switching by MOR PAMs, read-out: cAMP EC50) | EC50 (mu opioid receptor (MOR) [1]; [3]) | cAMP Max. Resp. (mu opioid receptor (MOR) [1]) | β-arr Max. Resp. (mu opioid receptor (MOR) [2]) | β-arrestin Max Response (mu opioid receptor (MOR) [2]; β-arrestin recruitment, activity switching by MOR PAMs) | EC50 (mu opioid receptor (MOR) [2]; β-arrestin recruitment, activity switching by MOR PAMs, read-out: β-arrestin EC50) | EC50 (mu opioid receptor (MOR) [2]; [4]) | EC50 (mu opioid receptor (MOR) [1]; [5])
1 | O=S(=O)(c1ccc(Cl)cc1)N1CCCCC1c1cncc(C(F)(F)F)n1 (stereo not shown) [compound 63] | E (E represents a maximal response of 40-60%) | > 2.1 µM | > 2.1 µM | E (E represents a maximal response of 40-60%) | F (F represents a maximal response of > 60%) | F (F represents a maximal response of >60%) | > 2.1 µM | > 2.1 µM | 
2 | Fc1ccc(C2CCCCN2c2nc(Cl)ncc2F)cc1Cl (stereo not shown) [compound 121] |  |  |  | E (E represents a maximal response of 40-60%) | F (F represents a maximal response of > 60%) |  |  | < 0.7 µM | < 0.7 µM
3 | Fc1cc(C2CCCCN2c2nc(Cl)ncc2F)cc(C(F)(F)F)c1 (stereo not shown) [compound 122] |  |  |  | F (F represents a maximal response of > 60%) | F (F represents a maximal response of > 60%) |  |  | < 0.7 µM | < 0.7 µM
4 | Fc1ccc(C2CCCCN2c2nc(Cl)ncc2F)cc1Br (stereo not shown) [compound 124] |  |  |  | E (E represents a maximal response of 40-60%) | F (F represents a maximal response of > 60%) |  |  | < 0.7 µM | < 0.7 µM
5 | Fc1cnc(Cl)nc1N1CCCCC1c1ccc(OC(F)(F)F)c(Br)c1 (stereo not shown) [compound 126] |  |  |  | E (E represents a maximal response of 40-60%) | F (F represents a maximal response of > 60%) |  |  | < 0.7 µM | < 0.7 µM
6 | Fc1ccc(C2CCCCN2c2nc(Cl)ncc2F)cc1 (stereo not shown) [compound 127] |  |  |  | E (E represents a maximal response of 40-60%) | F (F represents a maximal response of > 60%) |  |  | < 0.7 µM | 0.7 to 2.1 µM
7 | Fc1cnc(Cl)nc1N1CCCCC1c1ccc(Cl)c(C(F)(F)F)c1 (stereo not shown) [compound 128] |  |  |  | E (E represents a maximal response of 40-60%) | F (F represents a maximal response of > 60%) |  |  | < 0.7 µM | 0.7 to 2.1 µM
8 | Fc1ccc(C2CCCCN2c2nc(Cl)ncc2F)cc1F (stereo not shown) [compound 129] |  |  |  | E (E represents a maximal response of 40-60%) | F (F represents a maximal response of > 60%) |  |  | < 0.7 µM | 0.7 to 2.1 µM
9 | Cc1cc(C2CCCCN2c2nc(Cl)ncc2F)ccc1F (stereo not shown) [compound 130] |  |  |  | E (E represents a maximal response of 40-60%) | F (F represents a maximal response of > 60%) |  |  | < 0.7 µM | 0.7 to 2.1 µM
10 | Fc1cnc(Cl)nc1N1CCCCC1c1cccc(OC(F)(F)F)n1 (stereo not shown) [compound 131] |  |  |  | D (D represents a maximal response of < 40%) | F (F represents a maximal response of > 60%) |  |  | 0.7 to 2.1 µM | 0.7 to 2.1 µM
11 | COc1ccc(C2CCCCN2c2nc(Cl)ncc2F)cc1Br (stereo not shown) [compound 132] |  |  |  | D (D represents a maximal response of < 40%) | F (F represents a maximal response of > 60%) |  |  | > 2.1 µM | 0.7 to 2.1 µM
12 | Fc1cccc(C2CCCCN2c2nc(Cl)ncc2F)n1 (stereo not shown) [compound 133] |  |  |  | E (E represents a maximal response of 40-60%) | F (F represents a maximal response of > 60%) |  |  | > 2.1 µM | > 2.1 µM
13 | Cc1ccc(C(F)(F)F)cc1C1CCCCN1c1nc(Cl)ncc1F (stereo not shown) [compound 134] |  |  |  | D (D represents a maximal response of < 40%) | F (F represents a maximal response of > 60%) |  |  | > 2.1 µM | > 2.1 µM
14 | Cc1c(C2CCCCN2c2nc(Cl)ncc2F)cccc1C(F)(F)F (stereo not shown) [compound 135] |  |  |  | D (D represents a maximal response of < 40%) | F (F represents a maximal response of > 60%) |  |  | 0.7 to 2.1 µM | < 0.7 µM
15 | Fc1ccc(C2C3CCC(C3)N2c2nc(Cl)ncc2F)cc1Br (stereo not shown) [compound 136] |  |  |  | D (D represents a maximal response of < 40%) | F (F represents a maximal response of > 60%) |  |  | > 2.1 µM | > 2.1 µM
16 | Fc1cnc(Cl)nc1N1C2CCC(C2)C1c1cccc(C(F)(F)F)n1 (stereo not shown) [compound 137] |  |  |  | D (D represents a maximal response of < 40%) | D (D represents a maximal response of < 40%) |  |  | > 2.1 µM | > 2.1 µM
17 | COc1ccc(C2C3CCC(C3)N2c2nc(Cl)ncc2F)cc1Br (stereo not shown) [compound 138] |  |  |  | D (D represents a maximal response of < 40%) | D (D represents a maximal response of < 40%) |  |  | > 2.1 µM | > 2.1 µM
18 | Fc1cc(C2C3CCC(C3)N2c2nc(Cl)ncc2F)cc(C(F)(F)F)c1 (stereo not shown) [compound 139] |  |  |  | E (E represents a maximal response of 40-60%) | F (F represents a maximal response of > 60%) |  |  | > 2.1 µM | > 2.1 µM

Row | SMILES | cAMP Max Resp. (mu opioid receptor (MOR) [1]; adenylyl cyclase inhibition, activity switching by MOR PAMs) | EC50 (mu opioid receptor (MOR) [1]; adenylyl cyclase inhibition, activity switching by MOR PAMs, read-out: cAMP EC50) | EC50 (mu opioid receptor (MOR) [1]; [3]) | cAMP Max. Resp. (mu opioid receptor (MOR) [1]) | β-arr Max. Resp. (mu opioid receptor (MOR) [2]) | β-arrestin Max Response (mu opioid receptor (MOR) [2]; β-arrestin recruitment, activity switching by MOR PAMs) | EC50 (mu opioid receptor (MOR) [2]; β-arrestin recruitment, activity switching by MOR PAMs, read-out: β-arrestin EC50) | EC50 (mu opioid receptor (MOR) [2]; [4]) | EC50 (mu opioid receptor (MOR) [1]; [5])
19 | OCCNc1cccc(C2CCCCN2Cc2cc(Cl)ccc2F)n1 (stereo not shown) [compound 141] |  |  | > 2.1 µM | D (D represents a maximal response of < 40%) | D (D represents a maximal response of < 40%) |  |  | > 2.1 µM | 
20 | FC(F)(F)c1cccc(C2CCCCN2Cc2cncc(Cl)c2)n1 (stereo not shown) [compound 143] |  |  |  | D (D represents a maximal response of < 40%) | D (D represents a maximal response of < 40%) |  |  | > 2.1 µM | > 2.1 µM
21 | [N-]=[N+]=Nc1cccc(C2CCCCN2Cc2cc(Cl)ccc2F)n1 (stereo not shown) [compound 144] |  |  |  | D (D represents a maximal response of < 40%) | E (E represents a maximal response of 40-60%) |  |  | > 2.1 µM | > 2.1 µM
22 | Fc1ccc(C2CCCCN2Cc2cc(Cl)ccn2)cc1Cl (stereo not shown) [compound 145] |  |  |  | E (E represents a maximal response of 40-60%) | F (F represents a maximal response of > 60%) |  |  | > 2.1 µM | 0.7 to 2.1 µM
23 | FC(F)(F)c1cccc(C2CCCCN2Cc2ccc(Cl)cc2)n1 (stereo not shown) [compound 146] |  |  |  | D (D represents a maximal response of < 40%) | F (F represents a maximal response of > 60%) |  |  | > 2.1 µM | > 2.1 µM
24 | Fc1ccc(C2CCCCN2Cc2cncc(Cl)c2)cc1Cl (stereo not shown) [compound 147] |  |  |  | D (D represents a maximal response of < 40%) | F (F represents a maximal response of > 60%) |  |  | > 2.1 µM | > 2.1 µM
25 | Fc1cc(C2CCCCN2Cc2cccc(Br)c2)cc(C(F)(F)F)c1 (stereo not shown) [compound 148] |  |  |  | E (E represents a maximal response of 40-60%) | F (F represents a maximal response of > 60%) |  |  | 0.7 to 2.1 µM | > 2.1 µM
26 | CN(C)c1cccc(C2CCCCN2Cc2cc(Cl)ccc2F)n1 (stereo not shown) [compound 149] |  |  |  | E (E represents a maximal response of 40-60%) | F (F represents a maximal response of > 60%) |  |  | > 2.1 µM | > 2.1 µM
27 | Fc1ccc(Cl)cc1CN1CCCCC1c1ccc(Cl)c(C(F)(F)F)c1 (stereo not shown) [compound 150] |  |  |  | E (E represents a maximal response of 40-60%) | F (F represents a maximal response of > 60%) |  |  | < 0.7 µM | < 0.7 µM
28 | Fc1ccc(C2CCCCN2Cc2cc(Cl)cc(Cl)c2)cc1Cl (stereo not shown) [compound 151] |  |  |  | D (D represents a maximal response of < 40%) | F (F represents a maximal response of > 60%) |  |  | > 2.1 µM | > 2.1 µM
29 | Fc1cccc(CN2CCCCC2c2cccc(C(F)(F)F)n2)c1 (stereo not shown) [compound 152] |  |  |  | E (E represents a maximal response of 40-60%) | F (F represents a maximal response of > 60%) |  |  | > 2.1 µM | 0.7 to 2.1 µM
30 | FC(F)(F)c1cccc(C2CCCCN2Cc2ccc(Cl)c(Cl)c2)n1 (stereo not shown) [compound 153] |  |  |  | D (D represents a maximal response of < 40%) | F (F represents a maximal response of > 60%) |  |  | > 2.1 µM | > 2.1 µM
31 | FC(F)(F)c1cccc(C2CCCCN2Cc2cccc(Cl)c2)c1 (stereo not shown) [compound 154] |  |  |  | E (E represents a maximal response of 40-60%) | F (F represents a maximal response of > 60%) |  |  | < 0.7 µM | < 0.7 µM
32 | Fc1cc(Cl)cc(CN2CCCCC2c2ccc(F)c(Cl)c2)c1 (stereo not shown) [compound 155] |  |  |  | D (D represents a maximal response of < 40%) | F (F represents a maximal response of > 60%) |  |  | 0.7 to 2.1 µM | 0.7 to 2.1 µM
33 | COc1cccc(CN2CCCCC2c2cccc(C(F)(F)F)n2)c1 (stereo not shown) [compound 156] |  |  |  | E (E represents a maximal response of 40-60%) | F (F represents a maximal response of > 60%) |  |  | > 2.1 µM | > 2.1 µM
34 | Fc1cc(C2CCCCN2Cc2cccc(Cl)c2)cc(C(F)(F)F)c1 (stereo not shown) [compound 157] |  |  |  | E (E represents a maximal response of 40-60%) | F (F represents a maximal response of > 60%) |  |  | > 2.1 µM | > 2.1 µM
35 | Fc1ccc(C2CCCCN2Cc2cc(Cl)ccc2Cl)cc1Cl (stereo not shown) [compound 158] |  |  |  | D (D represents a maximal response of < 40%) | F (F represents a maximal response of > 60%) |  |  | 0.7 to 2.1 µM | < 0.7 µM
36 | FC(F)(F)c1cccc(C2CCCCN2Cc2cc(Cl)cc(Cl)c2)n1 (stereo not shown) [compound 159] |  |  |  | E (E represents a maximal response of 40-60%) | F (F represents a maximal response of > 60%) |  |  | 0.7 to 2.1 µM | 0.7 to 2.1 µM
